Results reported in paper PMC7824550 (Biomolecules, 2020).
Where two headings read alike, the source gives them in different places.

Tests used:
[1] = biological target: T1, human cathepsin L (Homo sapiens, UniProt P07711); experiment: Inhibition of cathepsin L, fluorogenic substrate Z-Leu-Arg-AMC; format: biochemical; details: for Mechanism of inhibition of cathepsin L / Ki: pH 5.5
T1 construct: made in house

[2] = biological target: T2, human cathepsin B (Homo sapiens, UniProt P07858); experiment: Inhibition of cathepsin B, fluorogenic substrate Z-Phe-Arg-AMC; details: for Ki: cathepsin B
[3] = tested on: dipeptidyl-peptidase I (DPPI); parameters: method as in PMID 31574257; details: previously characterized; cited from earlier work
[4] = biological target: T2, human cathepsin B; experiment: Inhibition of peptidyl-dipeptidase activity of cathepsin B, substrate Abz-Gly-Ile-Val-Arg-Ala-Lys(Dnp)-OH; format: biochemical; parameters: made in house; details: pH 5.5, [S] = Km, read-out: IC50, peptidyl-peptidase activity of cathepsin B
Protocol: In addition, the peptidyl-dipeptidase activity of cathepsin B was measured with the internally quenched fluorigenic substrate Abz-Gly-Ile-Val-Arg-Ala-Lys(Dnp)-OH. Cleavage of this substrate was assessed at λex = 370 nm and λem = 430 nm. […] Nevertheless, appropriate correction of the inner filter effect was performed for all compounds according to the following reference.
For linear (complete) inhibitors, v∞ = 0.

[5] = biological target: T3, cathepsin K (Homo sapiens, UniProt P43235); experiment: Inhibition of cathepsin K (results not shown); format: biochemical; details: confirmed in the authors' laboratory
T3 sequence (P43235 115-329): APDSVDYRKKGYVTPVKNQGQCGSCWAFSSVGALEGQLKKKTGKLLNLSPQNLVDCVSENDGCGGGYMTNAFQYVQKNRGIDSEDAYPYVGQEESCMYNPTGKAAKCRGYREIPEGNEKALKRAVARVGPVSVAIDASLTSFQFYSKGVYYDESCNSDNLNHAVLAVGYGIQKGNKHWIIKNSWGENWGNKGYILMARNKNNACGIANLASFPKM

[6] = Solubility under the experimental conditions used; format: physicochemical; details: assay buffer of the cathepsin L inhibition screening, aqueous buffer; under the experimental conditions used (pH 5.5 assay buffer); read-out: Limited solubility
Protocol: The kinetic characterization of CA, CAPE, and CGA was initially performed under the same conditions as the inhibition screening (pH 5.5). All compounds acted as fast, linear inhibitors of cathepsin L, as observed for DPPI [17]. Kinetic mechanisms and inhibition parameters were determined by a combination of titration curves (plots of the residual enzyme activity (vX/v0) against the inhibitor concentration) and replots of the experimental data as specific velocity plots. The remaining titration curves were collected in Supplementary Figure S1. […] However, a more precise characterization of its effect was made difficult by its limited solubility of only up to about 200 μM under the experimental conditions used.

[7] = catalytic (uncompetitive) inhibition constant, read-out: KCa, cathepsin L
[8] = specific (competitive) inhibition constant, read-out: KSp, cathepsin L
[9] = KCa, pH 5.5, catalytic (uncompetitive) inhibition constant
[10] = KCa, pH 7.4, catalytic (uncompetitive) inhibition constant
[11] = KSp, pH 5.5, specific (competitive) inhibition constant
[12] = KSp, pH 7.4, specific (competitive) inhibition constant

T1 sequence (P07711 114-333): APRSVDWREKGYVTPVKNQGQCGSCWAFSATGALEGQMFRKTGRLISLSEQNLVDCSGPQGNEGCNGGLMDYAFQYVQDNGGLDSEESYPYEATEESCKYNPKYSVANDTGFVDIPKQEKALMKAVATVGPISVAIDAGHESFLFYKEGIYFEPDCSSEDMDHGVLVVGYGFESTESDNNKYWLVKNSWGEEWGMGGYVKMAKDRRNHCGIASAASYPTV

IC50 [1]	IC50 [2]	Mechanism of inhibition of cathepsin L [1]	Ki [1, 7]	Ki [1, 8]	IC50 [4]	Ki [2, 9]	Ki [2, 10]	Ki [2, 11]	Ki [2, 12]	Mechanism of inhibition of cathepsin B ([2]; pH 5.5)	Mechanism of inhibition of cathepsin B ([2]; pH 7.4)	Inhibition of cathepsin K [5]	solubility [6]	SMILES	Mechanism of inhibition of DPPI [3]
480 ± 20 µM	340 ± 20 µM	Mixed	670 ± 60 µM	330 ± 20 µM	360 ± 60 µM	1200 ± 1100 µM	92 ± 15 µM	340 ± 80 µM	92 ± 15 µM	Mixed	Mixed balanced	–	–	O=C(/C=C/c1ccc(O)c(O)c1)O[C@@H]1C[C@](O)(C(=O)O)C[C@@H](O)[C@H]1O [Chlorogenic acid, chlorogenic acid]	linear catalytic
> 1000 µM	110 ± 10 µM	Mixed	1270 ± 120 µM	740 ± 70 µM	> 1000 µM	82 ± 16 µM	46 ± 4 µM	270 ± 140 µM	–	–	Catalytic	no inhibition	–	O=C(O)C=Cc1ccc(O)c(O)c1 [Caffeic acid, 3,4-dihydroxycinnamic acid]	linear, mixed balanced
190 ± 30 µM	470 ± 30 µM	Mixed	170 ± 30 µM	120 ± 70 µM	100 ± 20 µM	140 ± 10 µM	70 ± 19 µM	–	107 ± 38 µM	Catalytic	Mixed	no inhibition	~200 µM	O=C(/C=C/c1ccc(O)c(O)c1)OCCc1ccccc1 [Caffeic acid phenethyl ester, caffeic acid phenethyl ester]	–

Continued, molecule first:

SMILES	IC50 [1]	IC50 [2]	Mechanism of inhibition of cathepsin L [1]	Ki [1, 7]	Ki [1, 8]	IC50 [4]	Ki [2, 9]	Ki [2, 10]	Ki [2, 11]	Ki [2, 12]	Mechanism of inhibition of cathepsin B ([2]; pH 5.5)	Mechanism of inhibition of cathepsin B ([2]; pH 7.4)	Inhibition of cathepsin K [5]	solubility [6]	Mechanism of inhibition of DPPI [3]
O=C(O)C=Cc1ccc(O)cc1O [2,4-Dihydroxy-cinnamic acid, 2,4-dihydroxycinnamic acid]	930 ± 150 µM	910 ± 30 µM	–	–	–	–	–	–	–	–	–	–	–	–	–
O=C(O)CCc1ccc(O)c(O)c1 [Hydrocaffeic acid, 3-(3,4-Dihydroxyphenyl) propionic acid]	> 1000 µM	> 1000 µM	–	–	–	–	–	–	–	–	–	–	–	–	–
O=C(O)C=Cc1ccc(O)cc1 [p-Coumaric acid]	> 1000 µM	–	–	–	–	–	–	–	–	–	–	–	–	–	–
O=C(O)/C=C/c1ccccc1 [Cinnamic acid]	> 1000 µM	> 1000 µM	–	–	–	–	–	–	–	–	–	–	–	–	–
O=C(O)/C=C/c1ccccc1O [o-Coumaric acid]	> 1000 µM	> 1000 µM	–	–	–	–	–	–	–	–	–	–	–	–	–
